Measured values published in US20160022665A2, “Pharmaceutical Compositions and Administrations Thereof” (Vertex Pharmaceuticals Incorporated, priority 2012, published 2016).
Values belong to the molecule of their own block, whether it stands above or below them.

Tests used:
ΔF508-CFTR = biological target: T1, ΔF508-CFTR (Homo sapiens, UniProt P13569, DEL508-508); experiment: Membrane potential optical assay (fluorescent voltage sensing dyes, FLIPR III), identification of potentiator compounds (Protocol 1); type: cell-based
T1 construct: expressed in transfected cells
Excerpt: The assay utilizes fluorescent voltage sensing dyes to measure changes in membrane potential using a fluorescent plate reader (e.g., FLIPR III, Molecular Devices, Inc.) as a readout for increase in functional ΔF508-CFTR in NIH 3T3 cells. The driving force for the response is the creation of a chloride ion gradient in conjunction with channel activation by a single liquid addition step after the cells have previously been treated with compounds and subsequently loaded with a voltage sensing dye.
To identify potentiators of ΔF508-CFTR, a double-addition HTS assay format was developed. This HTS assay utilizes fluorescent voltage sensing dyes to measure changes in membrane potential on the FLIPR III as a measurement for increase in gating (conductance) of ΔF508 CFTR in temperature-corrected ΔF508 CFTR NIH 3T3 cells. The driving force for the response is a Cl^− ion gradient in conjunction with channel activation with forskolin in a single liquid addition step using a fluorescent plate reader such as FLIPR III after the cells have previously been treated with potentiator compounds (or DMSO vehicle control) and subsequently loaded with a redistribution dye.
Bath Solution #1: (in mM) NaCl 160, KCl 4.5, CaCl2 2, MgCl2 1, HEPES 10, pH 7.4 with NaOH.
Chloride-free bath solution: Chloride salts in Bath Solution #1 (above) are substituted with gluconate salts. […]

[1] = Physical and chemical stability of Compound 3 in aqueous methylcellulose formulations; type: physicochemical; details: for physical stability of the HCl salt form in suspension: 0.5% methylcellulose/0.5% polysorbate 80 suspension vehicle, T(0), XRPD and 1H NMR
Procedure: A 100 mL stock solution of 0.5% by weight methylcellulose was prepared by stirring 0.5 g of methylcellulose with 99.5 g of purified water until completely dissolved (approximately 24 hours). The appropriate amount of Compound 3 HCl salt based on free base was weighed and transferred to a scintillation vial. The desired amount of 0.5% methylcellulose stock solution for making a 6 mg/mL based on free base (6.48 mg/mL based on HCl salt) was transferred into the vial and sonicated for 20 minutes and homogenized for approximately 5 minutes.
Methylcellulose (0.5 g) was combined with 99.0 g of purified water in a beaker and stirred in a 60-70° C. water bath for 30′-1 hr. The solution was stirred in a 0° C. ice/water bath for another 30′ or until clear. Polysorbate 80 (0.5 g) was added and stirring at room temperature followed for 30′-1 hr or until a clear solution was obtained.
The appropriate amount of Compound 3 HCl salt based on free base was weighed and transferred to a scintillation vial. The desired amount of 0.5% methylcellulose and 0.5% polysorbate 80 stock solution for making a 6 mg/mL based on free base (6.48 mg/mL based on HCl salt) was transferred into the vial and sonicated for 20 minutes with alternate stirring for 1-2 minutes. The solution was homogenized for approximately 1-2 minutes.

T1 sequence (P13569 with tags, fused parts or gaps DEL508-508): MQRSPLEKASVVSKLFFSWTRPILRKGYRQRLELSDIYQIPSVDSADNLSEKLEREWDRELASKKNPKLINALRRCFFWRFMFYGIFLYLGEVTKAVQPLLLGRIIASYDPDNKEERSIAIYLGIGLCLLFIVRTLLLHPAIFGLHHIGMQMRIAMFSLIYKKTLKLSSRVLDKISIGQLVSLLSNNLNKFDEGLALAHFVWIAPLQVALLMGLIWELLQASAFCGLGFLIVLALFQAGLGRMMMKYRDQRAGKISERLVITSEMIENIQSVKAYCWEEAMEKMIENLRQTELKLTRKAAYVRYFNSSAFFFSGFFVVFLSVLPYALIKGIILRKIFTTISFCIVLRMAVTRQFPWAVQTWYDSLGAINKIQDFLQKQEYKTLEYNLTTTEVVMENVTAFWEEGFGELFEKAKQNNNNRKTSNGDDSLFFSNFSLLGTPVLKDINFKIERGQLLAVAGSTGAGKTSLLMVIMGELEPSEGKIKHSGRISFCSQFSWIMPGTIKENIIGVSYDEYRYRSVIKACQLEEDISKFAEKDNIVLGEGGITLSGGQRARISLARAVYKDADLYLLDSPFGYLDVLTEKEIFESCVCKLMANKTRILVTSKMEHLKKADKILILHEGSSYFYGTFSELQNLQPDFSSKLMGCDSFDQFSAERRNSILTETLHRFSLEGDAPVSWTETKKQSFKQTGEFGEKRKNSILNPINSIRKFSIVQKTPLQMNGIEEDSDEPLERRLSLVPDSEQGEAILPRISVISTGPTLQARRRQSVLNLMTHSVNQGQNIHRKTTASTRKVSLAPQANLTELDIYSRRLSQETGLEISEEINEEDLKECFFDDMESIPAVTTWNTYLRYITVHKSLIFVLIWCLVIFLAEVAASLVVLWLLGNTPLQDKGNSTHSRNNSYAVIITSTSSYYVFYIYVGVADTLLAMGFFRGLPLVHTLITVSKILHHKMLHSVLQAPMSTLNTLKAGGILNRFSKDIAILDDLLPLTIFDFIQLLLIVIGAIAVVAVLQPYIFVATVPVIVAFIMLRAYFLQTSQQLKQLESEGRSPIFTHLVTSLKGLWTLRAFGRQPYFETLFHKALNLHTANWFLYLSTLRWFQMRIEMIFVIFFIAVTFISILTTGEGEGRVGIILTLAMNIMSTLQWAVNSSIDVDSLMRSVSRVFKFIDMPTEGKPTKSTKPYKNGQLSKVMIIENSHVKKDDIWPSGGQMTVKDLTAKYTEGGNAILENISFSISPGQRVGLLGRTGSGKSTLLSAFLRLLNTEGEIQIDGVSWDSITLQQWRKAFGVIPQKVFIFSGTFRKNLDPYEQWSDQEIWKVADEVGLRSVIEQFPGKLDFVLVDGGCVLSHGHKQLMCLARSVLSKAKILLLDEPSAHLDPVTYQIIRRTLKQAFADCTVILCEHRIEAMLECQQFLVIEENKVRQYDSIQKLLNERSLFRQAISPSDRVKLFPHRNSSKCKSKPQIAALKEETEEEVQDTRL

Emax (ΔF508-CFTR; Compound 1, potentiator activity, Protocol 1, read-out: % Activity (relative efficacy)): 25 to 100%
Structure (SMILES): CC(C)(C)c1cc(C(C)(C)C)c(NC(=O)c2c[nH]c3ccccc3c2=O)cc1O [Compound 1, N-[2,4-bis(1,1-dimethylethyl)-5-hydroxyphenyl]-1,4-dihydro-4-oxoquinoline-3-carboxamide]

Structure (SMILES): Cc1ccc(NC(=O)C2(c3ccc4c(c3)OC(F)(F)O4)CC2)nc1-c1cccc(C(=O)O)c1.Cl [Compound 3 HCl salt, 3-(6-(1-(2,2-Difluorobenzo[d][1,3]dioxol-5-yl)cyclopropanecarboxamido)-3-methylpyridin-2-yl)benzoic acid.HCl salt]
physical stability of the HCl salt form in suspension [1]: not physically stable
physical stability of the HCl salt form in suspension ([1]; listed as HCl salt): quickly converted to Compound 3 Form I

Structure (SMILES): O=C(Nc1ccc(N2C3CCC2[C@H](O)C3)cc1C(F)(F)F)c1c[nH]c2cccc(C(F)(F)F)c2c1=O (stereo partly drawn) [Compound 2-5]
% Efficacy (ΔF508-CFTR; compounds of Formula II, 100% efficacy is the maximum response obtained with 4-methyl-2-(5-phenyl-1H-pyrazol-3-yl)phenol): +++ (“+++” if efficacy was calculated to be greater than 100%)

Structure (SMILES): Cc1ccc(NC(=O)C2(c3ccc4c(c3)OC(F)(F)O4)CC2)nc1-c1cccc(C(=O)O)c1 [Compound 3 Form I, 3-(6-(1-(2,2-difluorobenzo[d][1,3]dioxol-5-yl)cyclopropanecarboxamido)-3-methylpyridin-2-yl)benzoic acid]
chemically stable (time) ([1]; room temperature, 0.5% methylcellulose/0.5% polysorbate 80 formulation vehicle, no sign of chemical degradation): at least 24 hrs
physically and chemically stable (time) ([1]; room temperature, methylcellulose formulation (0.5% by weight), no sign of chemical degradation): at least 24 hrs
